Laboratory results: patent US4710499A, “New derivatives of pyridazine active on the central nervous system” (priority 1981, dated 1987)
Counter-ions that a name gives are not always drawn. Like-named read-outs stand apart in the source and are kept apart here.

Key:
[1] = system: convulsivant effects of strychnine; experiment: Anti-Strychnine Activity (oral, mice); format: in vivo; settings: for ED50: Mus musculus, po, read-out: Inhibition of the convulsivant effects of Strychinine ED50
Protocol: (§1) The anticonvulsivant activity of the derivatives was assessed with respect to two chemical agents: strychnine and bicuculline, and with respect to electric shock. In these various tests, the products were compared with the minaprine described in French Patent 2 141 697 mentioned hereinabove.
The products are administered by the oral route 30 minutes before the strychnine 0.9 mg/kg i.p.. The occurrence of tetanic crises as well as mortality are noted during the 60 minutes following administration of strychnine.
(§2) In the three cases, the products are administered in a range of doses to batches of 10 mice per dose.

[2] = system: convulsivant effects of bicuculline; experiment: Anti-Bicuculline Activity (oral, mice); format: in vivo; settings: for ED50: Mus musculus, read-out: Inhibition of the convulsivant effects of Bicuculline ED50
Protocol: as §1
Anti-Bicuculline Activity
The products are administered by the oral route 30 minutes before the bicuculline 0.9 mg/kg i.v.. The occurrence of clonic, tonic crises as well as mortality are noted during the 60 minutes following administration of bicuculline.
as §2

[3] = system: convulsivant effects of electric shock; experiment: Anti-Electric Shock Activity (oral, mice); format: in vivo; settings: for ED50: Mus musculus, po, read-out: Inhibition of the convulsivant effects of electric shock ED50; for anti-convulsivant activity with respect to electric shock (in words): oral
Protocol: The anticonvulsivant activity of the derivatives was assessed with respect to two chemical agents: strychnine and bicuculline, and with respect to electric shock.
Anti-Electric Shock Activity
The electric shock was given to the animal via corneal electrodes. […] The animals not presenting extension of the rear limbs were considered as protected.
as §2

[4] = Acute toxicity, mortality within 24 hours (oral, mice); format: in vivo; settings: mouse, in vivo
mice = experiment: as above; format: in vivo; settings: for toxic effect at the dose of 500 mg/kg p.os (in words): mouse, in vivo
[5] = per os; cited from earlier work
[6] = 30 minutes before bicuculline 0.9 mg/kg i.v., 10 mice per dose
[7] = mice, per os, 30 minutes before electric shock (12.5 volts for 0.5 seconds), corneal electrodes, 10 mice per dose
[8] = mice, oral, 250 mg/kg, 24 hours, read-out: p. cent of mortality at 250 mg/kg
[9] = mice, oral, 500 mg/kg, 24 hours, read-out: p. cent of mortality at 500 mg/kg
[10] = mice, oral, 1000 mg/kg, 24 hours, read-out: p. cent of mortality at 1000 mg/kg

Structure (SMILES) | ED50 [1] | ED50 [2, 6] | ED50 [3, 7] | mortality at 24 h [4, 8] | mortality at 24 h [4, 9] | mortality at 24 h [4, 10] | anti-convulsivant activity with respect to strychnine (in words) ([1]; mice, oral) | anti-convulsivant activity with respect to bicuculline (in words) [2] | anti-convulsivant activity with respect to electric shock (in words) ([3]; mice) | mortality at 24 h ([4]; po, 250 mg/kg) | mortality at 24 h ([4]; po, 500 mg/kg) | mortality at 24 h ([4]; po, 1000 mg/kg) | other results
Cc1cc(-c2ccccc2)nnc1NCCO [CM 30094, 3-(2-HYDROXY ETHYLAMINO)4-METHYL 6-PHENYL PYRIDAZINE] | 119 mg/kg | 286 mg/kg | 107 mg/kg | 0% | 0% | 0% |  |  |  |  |  |  | 
Cc1cc(-c2ccccc2)nnc1NCC(C)O (stereo not shown) [CM 30096] | 92 mg/kg | 175 mg/kg | 209 mg/kg |  |  |  | particularly powerful | still considerable | still considerable | 0% | 20% | 100% | toxic effect at the dose of 500 mg/kg p.os (in words) (mice): have a toxic effect
Cc1cc(-c2ccccc2)nnc1NCCCCO [CM 30097] |  |  |  | 0% | 0% | 100% |  |  |  |  |  |  | 
COCCNc1nnc(-c2ccccc2)cc1C [CM 30310, 3-(2-METHOXY ETHYLAMINO)4-METHYL 6-PHENYL PYRIDAZINE] | 158 mg/kg | 136 mg/kg | 78 mg/kg | 0% | 0% | 100% | particularly powerful |  |  |  |  |  | 
OCCNc1nnc(-c2ccccc2)cc1-c1ccccc1 [CM 30339] | 145 mg/kg | 86 mg/kg | ~200 mg/kg |  |  |  | particularly powerful |  |  | 0% | 60% | 60% | toxic effect at the dose of 500 mg/kg p.os (in words) (mice): have a toxic effect
COCCNc1nnc(-c2ccccc2)cc1-c1ccccc1 [CM 30340, 3-(2-methoxyethylamino)4,6-diphenyl pyridazine] |  |  |  | 0% | 0% | 20% |  |  |  |  |  |  | 
CCCCNc1nnc(-c2ccccc2)cc1C [CM 30434, 3-BUTYLAMINO 4-METHYL 6-PHENYL PYRIDAZINE] |  |  |  | 0% | 0% | 0% |  |  |  |  |  |  | 
Cc1cc(-c2ccccc2)nnc1NCCN1CCOCC1 [Minaprine, reference compound] |  |  |  |  |  |  | totally inactive | totally inactive | totally inactive | 100% | 100% | 100% | Inhibition of the convulsivant effects of Strychinine ED50 ([1]; mice, oral, 30 minutes before strychnine 0.9 mg/kg i.p., 10 mice per dose): Inactive; Inhibition of the convulsivant effects of Bicuculline ED50 [2, 6]: Inactive; Inhibition of the convulsivant effects of electric shock ED50 [3, 7]: Inactive; toxicity, overall (in words) (mice; mice, p.os): much greater toxic effect; mortality ([4]; po, 100 mg/kg): 20%; dose at which the product shows itself to be convulsivant [5]: greater than 100 mg/kg
CCCC(CCC)C(=O)O [Sodium Valproate, sodium salt of valproic acid, reference compound] | 480 mg/kg | 234 mg/kg |  |  |  |  | effective dose 50 most often greater than that of the products of the invention | effective dose 50 most often greater than that of the products of the invention | effective dose 50 most often greater than that of the products of the invention |  |  |  | ED50 [3]: 290 mg/kg
